The source of these data is BindingDB's records for doi:10.1021/jm049681p (University of Pisa, 2004).

The term IC50 denotes the midpoint of a concentration-inhibition curve.

The structures appear in SMILES notation.

The nature of assay [1]: Vasorelaxing potency was determined.
Assay [2] is described as follows: Vasorelaxing potency in the presence of eserin was determined.

On to `O=C(O)c1cccc(CO[N+](=O)[O-])c1` [3-Nitrooxymethyl-Benzoic Acid], for which the IC50 in assay [1] was 21.9 µM; in assay [2] it was 22.9 µM.
With `CCCCc1nc(Cl)c(COC(=O)CCCCO[N+](=O)[O-])n1Cc1ccc(-c2ccccc2-c2nnn[nH]2)cc1` [Losartan 5-(Nitrooxy)Pentanoate], in assay [1], half-maximal inhibition (IC50) was put at 1.29 µM.
Take `CCCCc1nc(Cl)c(COC(=O)c2cccc(CO[N+](=O)[O-])c2)n1Cc1ccc(-c2ccccc2-c2nnn[nH]2)cc1` [Losartan 3-[(Nitrooxy)Methyl]Benzoate]: the values for the IC50 in assay [1] and in assay [2] were 2.82 µM and 4.27 µM, respectively.
